Test results: ChEMBL document CHEMBL1133325, “Synthesis and biological activity of fluoro-substituted pyrrolo[2,3-d]pyrimidines: the development of potential positron emission tomography imaging agents for the corticotropin-releasing hormone type 1 receptor” (Bioorg Med Chem Lett, 2000)

Target: T1, Corticotropin-releasing factor receptor 1 (Rattus norvegicus, UniProt P35353)
T1 sequence (P35353 whole entry): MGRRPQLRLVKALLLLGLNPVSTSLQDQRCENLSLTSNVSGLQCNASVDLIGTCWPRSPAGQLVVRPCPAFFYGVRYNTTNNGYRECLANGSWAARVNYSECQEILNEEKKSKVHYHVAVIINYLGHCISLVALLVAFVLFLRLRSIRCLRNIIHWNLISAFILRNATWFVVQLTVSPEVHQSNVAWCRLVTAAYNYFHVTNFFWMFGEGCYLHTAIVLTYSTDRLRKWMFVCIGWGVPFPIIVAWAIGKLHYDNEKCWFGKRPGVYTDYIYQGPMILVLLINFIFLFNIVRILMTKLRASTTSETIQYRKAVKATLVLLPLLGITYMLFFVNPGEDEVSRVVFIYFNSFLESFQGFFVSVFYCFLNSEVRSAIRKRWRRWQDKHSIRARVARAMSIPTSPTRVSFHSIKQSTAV
Experiment: Compound was tested in vitro for its ability to displace [125 I]Tyr-sauvagine from corticotropin-releasing hormone type 1 receptor in rat cerebellum
Format: tissue-based

SMILES | Ki
Cc1cc(C)c(-n2c(C)c(C)c3c(N(CCCF)CC4CC4)nc(C)nc32)c(C)c1 | 30 nM
Cc1cc(C)c(-n2c(C)c(C)c3c(N4CCN(CCF)CC4)nc(C)nc32)c(C)c1 | > 1000 nM
CCCN(CCCCF)c1nc(C)nc2c1c(C)c(C)n2-c1c(C)cc(C)cc1C | 0.91 nM

More lines, in order of falling Ki, values ahead:

Ki | SMILES
10 nM | CCCCN(CCCCF)c1nc(C)nc2c1c(C)c(C)n2-c1c(C)cc(C)cc1C
3.5 nM | CCN(CCCCF)c1nc(C)nc2c1c(C)c(C)n2-c1c(C)cc(C)cc1C
2.5 nM | CCCCN(CC)c1nc(C)nc2c1c(C)c(C)n2-c1c(C)cc(C)cc1C [ANTALARMIN]
2.3 nM | CCCN(CC1CC1)c1nc(C)nc2c1c(C)c(C)n2-c1c(C)cc(C)cc1C
